Consider 45 compounds from PubChem BioAssay AID1224920 (Broad Institute, 2016).

Active and inactive are the calls of the source.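 Rule for the calls: active = IC50 no higher than ten times the top tested dose; inconclusive = flat fit with 30 to 70% inhibition, or poor fit; inactive = IC50 above ten times the top dose.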

The nature of the first assay: growth modulation of Clostridium difficile isolate – OD600, 9-point, retest, dose response (AID 1224920).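 Note: plate controls were DMSO for no effect and levofloxacin control for full effect; inhibitors lower culture turbidity so OD600 falls.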 Particulars: Clostridium difficile clinical isolate growth, OD600, 24 h; at 30 µM (top of the series).
With `CCC(=O)N1CC(=O)N2[C@H](CO)[C@@H](c3ccc(C#CC4CCCCC4)cc3)[C@@H]2C1`, the activity change, negative = inhibition is -9.02% (inactive).

Turning to `O=C(Nc1ccccc1)N1CCCCN2[C@H](CO)[C@H](c3ccc(-c4ccccc4F)cc3)[C@H]2C1`, the activity change, negative = inhibition was 38.6% (inactive).

Take `COc1ccc(NC(=O)N2CCCCN3[C@@H](CO)[C@@H](c4ccc(-c5ccccc5C)cc4)[C@@H]3C2)cc1`: the activity change, negative = inhibition is 48% (inactive).

Staying with this assay, now noted: Clostridium difficile clinical isolate growth, OD600, 24 h; at 35 µM (top of the series).
Consider `N#Cc1cccc(-c2ccc3c(c2)[C@@H]2[C@@H](CCN2Cc2ccc4c(c2)OCO4)[C@@H](CO)N3)c1`, for which the activity change, negative = inhibition was -4.09% (inactive).

Staying with this assay, now noted: Clostridium difficile clinical isolate growth, OD600, 24 h; at 60 µM (top of the series).
For `Cc1cccc(-c2ccc(C3[C@@H]4CN(C(=O)C5CCC5)C[C@H]3N4)cc2)c1` (stereo not given in full), the activity change, negative = inhibition was 39.3% (inactive).

For `N#Cc1cccc(-c2ccc(C3[C@@H]4CN(S(=O)(=O)Cc5ccccc5)C[C@H]3N4)cc2)c1` (stereo not given in full), the activity change, negative = inhibition was 29.4% (inactive).

Turning to `O=C(Nc1ccc(F)cc1)N1[C@@H]2CNC[C@H]1C2c1ccc(-c2ccc(F)cc2)cc1` (stereo not given in full), the activity change, negative = inhibition is 14.2% (inactive).

As for `COc1ccc2c3c(n(C)c2c1)[C@H](CO)NCC31CN(Cc2ccc(F)cc2)C1`, the activity change, negative = inhibition was 7.43% (inactive).

For the compound `O=C(C1CCCCC1)N1CC(=O)N2[C@@H](CO)[C@H](c3ccc(C#CCc4ccccc4)cc3)[C@@H]2C1`, the activity change, negative = inhibition was 21.9% (inactive).

As to `Cc1ccccc1S(=O)(=O)N1CC[C@H]2[C@H](CO)Nc3ccc(-c4ccc(F)cc4)cc3[C@H]21`, the activity change, negative = inhibition is 13.1% (inactive).

Regarding `O=C(c1ccc(F)cc1)N1CC[C@@H]2[C@H]1c1cc(C3=CCCCC3)ccc1N[C@@H]2CO`, the activity change, negative = inhibition is 34.8% (inactive).

Staying with this assay, now noted: Clostridium difficile clinical isolate growth, OD600, 24 h; at 68 µM (top of the series).
As to `O=C(Cc1ccccc1)N1CC[C@@H]2[C@H](CO)Nc3ccc(C4=CCCCC4)cc3[C@@H]21`, the activity change, negative = inhibition was 29.4% (inactive).

The assay is the same for the next values; noted with them: Clostridium difficile clinical isolate growth, OD600, 24 h; at 120 µM (top of the series).
Turning to `C/C=C/c1ccc([C@@H]2[C@@H](CO)N(Cc3ccccn3)[C@H]2CNC(C)=O)cc1`, the activity change, negative = inhibition is -14.5% (inactive).

As to `CC(=O)N(C)C[C@H]1[C@H](c2ccc(-c3ccccc3F)cc2)[C@@H](CO)N1C(C)=O`, the activity change, negative = inhibition was -11.8% (inactive).

With `COc1ccc(-c2ccc3c(c2)[C@H]2[C@H](CCN2C(=O)Cc2cccnc2)[C@H](CO)N3C)cc1`, the activity change, negative = inhibition was 28.9% (inactive).

As for `O=S(=O)(c1ccc(F)cc1)N1CCCCN2[C@@H](CO)[C@@H](c3ccc(-c4ccccc4)cc3)[C@@H]2C1`, the activity change, negative = inhibition is 0.278% (inactive).

In the case of `CC(=O)N1[C@H](CN(C)C(=O)CN2CCOCC2)[C@@H](c2ccccc2)[C@@H]1CO`, the activity change, negative = inhibition was -1.26% (inactive).

In the case of `COc1ccc2c3c(n(C)c2c1)[C@H](CO)N(C(=O)c1cccnc1)CC31CCN(C(=O)c2cccnc2)CC1`, the activity change, negative = inhibition is 0.941% (inactive).

On to `CC(=O)NC[C@H]1[C@H](c2ccc(-c3cccc(F)c3)cc2)[C@@H](CO)N1C(C)=O`, for which the activity change, negative = inhibition is -18.5% (inactive).

Take `CC(=O)NC[C@@H]1[C@H](c2ccc(-c3cccc(F)c3)cc2)[C@H](CO)N1C(C)=O`: the activity change, negative = inhibition is -6.3% (inactive).

Turning to `Cc1ccc(-c2ccc([C@@H]3[C@@H](CO)N4CCCCN(C(=O)Nc5ccccc5)C[C@@H]34)cc2)cc1`, the activity change, negative = inhibition was 27.7% (inactive).

As for `O=C(Nc1ccccc1F)N1C[C@@H]2N[C@H](C1)C2c1ccc(-c2ccccc2)cc1` (stereo not given in full), the activity change, negative = inhibition was 36.7% (inactive).

Consider `C[C@H](CO)N1C[C@H](C)[C@H](CN(C)C(=O)Nc2ccc3c(c2)OCO3)Oc2c(NC(=O)Nc3ccc(C(F)(F)F)cc3)cccc2C1=O`, for which the activity change, negative = inhibition is 49.4% (inactive).

As to `Cc1noc(C)c1NC(=O)N(C)C[C@H]1Oc2ccc(NC(=O)Nc3ccc4c(c3)OCO4)cc2CC(=O)N([C@H](C)CO)C[C@@H]1C`, the activity change, negative = inhibition was -2.04% (inactive).

On to `O=C(Nc1ccc(F)cc1)N1CCCCN2[C@H](C1)[C@@H](c1ccc(-c3cccc(F)c3)cc1)[C@@H]2CO`, for which the activity change, negative = inhibition was 43.3% (inactive).

In the case of `COc1ccc2c3c(n(C)c2c1)[C@H](CO)N(C(=O)Cc1ccccc1)CC31CCN(C)CC1`, the activity change, negative = inhibition was 8.89% (inactive).

`CN(C)C(=O)C[C@H]1C=C[C@H](NC(=O)C2CCOCC2)[C@H](CO)O1`: the activity change, negative = inhibition is -14.4% (inactive).

In the case of `CC(=O)N(C)C[C@H]1[C@@H](c2ccc(-c3ccccc3F)cc2)[C@@H](CO)N1C(C)=O`, the activity change, negative = inhibition was -10.3% (inactive).

Take `CN1c2ccc(-c3ccc(F)cc3)cc2[C@H]2[C@H](CCN2C(=O)Nc2ccc(F)cc2)[C@H]1CO`: the activity change, negative = inhibition was 43.1% (inactive).

With `O=C(Nc1ccc(F)cc1)N1CCCCN2[C@H](CO)[C@@H](c3ccc(-c4cccc(F)c4)cc3)[C@@H]2C1`, the activity change, negative = inhibition was 48.5% (inactive).

For the compound `CC(=O)N1[C@@H](CO)[C@H](c2ccccc2)[C@@H]1CN(C)C(=O)CN1CCOCC1`, the activity change, negative = inhibition was -5.04% (inactive).

With `O=S(=O)(c1ccc(F)cc1)N1CCCCN2[C@H](CO)[C@H](c3ccc(-c4ccccc4)cc3)[C@H]2C1`, the activity change, negative = inhibition is 39.2% (inactive).

As for `COc1ccc2c3c(n(C)c2c1)[C@H](CO)N(C)CC31CN(C(=O)NC(C)C)C1`, the activity change, negative = inhibition was 0.365% (inactive).

On to `O=C(C[C@@H]1CC[C@@H]2[C@H](COC[C@@H](O)CN2S(=O)(=O)c2ccccc2)O1)NCc1ccc(-c2ccccc2)cc1`, for which the activity change, negative = inhibition was 43.8% (inactive).

Regarding `Cc1ccccc1S(=O)(=O)N1CC[C@@H]2[C@@H](CO)Nc3ccc(-c4ccc(F)cc4)cc3[C@@H]21`, the activity change, negative = inhibition is 46.1% (inactive).

For the compound `CC(=O)NC[C@@H]1[C@H](c2ccc(-c3cccc(F)c3)cc2)[C@@H](CO)N1C(C)=O`, the activity change, negative = inhibition is -11.6% (inactive).

Take `C/C=C/c1ccc([C@@H]2[C@@H](CO)N(C(=O)CC)[C@@H]2CNC(=O)CC)cc1`: the activity change, negative = inhibition is -6.09% (inactive).

With `N#Cc1cccc(-c2ccc(C3[C@@H]4CN(Cc5cocn5)C[C@H]3N4)cc2)c1` (stereo not given in full), the activity change, negative = inhibition was 39.4% (inactive).

The assay is the same for the next values; noted with them: Clostridium difficile clinical isolate growth, OD600, 24 h; at 135 µM (top of the series).
Turning to `N#C[C@@H]1[C@@H](c2ccccc2-c2ccc(F)cc2)[C@H](CO)N1C(=O)NC1CCCC1`, the activity change, negative = inhibition was 14% (inactive).

Consider `N#C[C@@H]1[C@H](c2ccccc2-c2cccc(F)c2)[C@H](CO)N1C(=O)Cc1cccnc1`, for which the activity change, negative = inhibition was 9.55% (inactive).

In the case of `CN1c2ccc(-c3cccc(F)c3)cc2[C@@H]2[C@@H](CCN2C(=O)Cc2ccccc2)[C@@H]1CO`, the activity change, negative = inhibition is 52.8% (inactive).

Turning to `COc1ccccc1S(=O)(=O)N1CC[C@@H]2[C@@H](CO)Nc3ccc(-c4ccc(F)cc4)cc3[C@@H]21`, the activity change, negative = inhibition was 47% (inactive).

In the case of `C[C@H]1CN([C@@H](C)CO)C(=O)c2cccc(NC(=O)Nc3ccc(C(F)(F)F)cc3)c2O[C@@H]1CN(C)C(=O)Nc1ccc(C(F)(F)F)cc1`, the activity change, negative = inhibition is 33.9% (inactive).

As to `C/C=C/c1ccc([C@H]2[C@@H](CNC(C)C)N(c3nc(CC)cs3)[C@H]2CO)cc1`, the activity change, negative = inhibition is 32.5% (inactive).

`COc1cccc(-c2ccc3c(c2)[C@@H]2[C@@H](CCN2C(=O)Nc2ccccc2OC)[C@@H](CO)N3C)c1`: the activity change, negative = inhibition was -19.3% (inactive).
